Test results reported in the NIST ThermoML archive (doi:10.1021/je0340248).

Experiment: xn = mol fraction of the nth substance listed
Details: 101 kPa, Liquid

CC(O)CO (configuration not stated) [1,2-propanediol] + CCCCOC(C)=O
Details | mass density, 298.15 K [kg/m3] | mass density, 303.15 K [kg/m3] | mass density, 308.15 K [kg/m3] | mass density, 313.15 K [kg/m3] | speed of sound, 298.15 K [m/s] | speed of sound, 308.15 K [m/s] | viscosity, 298.15 K [mPa·s] | viscosity, 308.15 K [mPa·s]
x2 = 0.0445 | 1020.01 | 1016.1 | 1012.28 | 1008.28 | 1467 | 1429 | 31.87 | 18.51
x2 = 0.1493 | 993.58 | 989.44 | 985.19 | 980.98 | 1407 | 1372 | 16.1 | 10.19
x2 = 0.2487 | 972.28 | 968.01 | 963.42 | 959.09 | 1355 | 1322 | 8.935 | 6.083
x2 = 0.3511 | 953.32 | 948.95 | 944.08 | 939.65 | 1310 | 1280 | 5.175 | 3.762
x2 = 0.446 | 937.92 | 933.47 | 928.39 | 923.85 | 1276 | 1246 | 3.295 | 2.523
x2 = 0.4973 | 930.34 | 925.83 | 920.66 | 916.07 | 1260 | 1230 | 2.638 | 2.071
x2 = 0.5491 | 923.15 | 918.58 | 913.33 | 908.68 | 1247 | 1217 | 2.141 | 1.719
x2 = 0.6504 | 910.32 | 905.62 | 900.23 | 895.46 | 1226 | 1194 | 1.489 | 1.241
x2 = 0.7495 | 899.15 | 894.34 | 888.84 | 883.97 | 1210 | 1178 | 1.106 | 0.947
x2 = 0.8489 | 889.19 | 884.29 | 878.67 | 873.72 | 1200 | 1165 | 0.87 | 0.759
x2 = 0.946 | 880.55 | 875.62 | 869.86 | 864.9 | 1194 | 1155 | 0.727 | 0.64

CC(O)CO (configuration not stated) [1,2-propanediol] + CCOC(C)=O
Details | mass density, 298.15 K [kg/m3] | mass density, 303.15 K [kg/m3] | mass density, 308.15 K [kg/m3] | mass density, 313.15 K [kg/m3] | speed of sound, 298.15 K [m/s] | speed of sound, 308.15 K [m/s] | viscosity, 298.15 K [mPa·s] | viscosity, 308.15 K [mPa·s]
x2 = 0.0451 | 1024.21 | 1020.33 | 1016.53 | 1012.46 | 1463 | 1429 | 32.32 | 19.38
x2 = 0.1493 | 1005.58 | 1001.36 | 997.21 | 992.76 | 1401 | 1371 | 16.84 | 11.71
x2 = 0.2515 | 988.63 | 984.09 | 979.68 | 974.9 | 1343 | 1317 | 9.278 | 7.28
x2 = 0.3514 | 973.2 | 968.36 | 963.71 | 958.63 | 1294 | 1268 | 5.396 | 4.653
x2 = 0.4393 | 960.46 | 955.37 | 950.52 | 945.17 | 1255 | 1229 | 3.463 | 3.184
x2 = 0.5 | 952.1 | 946.85 | 941.84 | 936.31 | 1232 | 1205 | 2.597 | 2.469
x2 = 0.5497 | 945.49 | 940.12 | 934.99 | 929.3 | 1215 | 1186 | 2.075 | 2.014
x2 = 0.6505 | 932.74 | 927.13 | 921.75 | 915.78 | 1186 | 1153 | 1.357 | 1.351
x2 = 0.7495 | 921.01 | 915.21 | 909.59 | 903.37 | 1164 | 1128 | 0.93 | 0.928
x2 = 0.8499 | 909.87 | 903.92 | 898.1 | 891.68 | 1149 | 1109 | 0.661 | 0.645
x2 = 0.9487 | 899.61 | 893.57 | 887.61 | 881.09 | 1140 | 1098 | 0.491 | 0.459

CC(O)CO (configuration not stated) [1,2-propanediol] + COC(C)=O
Details | mass density, 298.15 K [kg/m3] | mass density, 303.15 K [kg/m3] | mass density, 308.15 K [kg/m3] | mass density, 313.15 K [kg/m3] | speed of sound, 298.15 K [m/s] | speed of sound, 308.15 K [m/s] | viscosity, 298.15 K [mPa·s] | viscosity, 308.15 K [mPa·s]
x2 = 0.0465 | 1027.72 | 1023.69 | 1020.09 | 1015.96 | 1472 | 1434 | 34.29 | 19.21
x2 = 0.1493 | 1016.8 | 1012.28 | 1008.63 | 1004.03 | 1429 | 1391 | 20.44 | 11.62
x2 = 0.251 | 1006.23 | 1001.34 | 997.58 | 992.61 | 1388 | 1350 | 12.35 | 7.189
x2 = 0.3512 | 995.96 | 990.75 | 986.86 | 981.59 | 1350 | 1313 | 7.576 | 4.553
x2 = 0.4412 | 986.79 | 981.3 | 977.29 | 971.76 | 1318 | 1281 | 4.915 | 3.063
x2 = 0.4906 | 981.76 | 976.11 | 972.05 | 966.37 | 1301 | 1264 | 3.887 | 2.478
x2 = 0.5499 | 975.7 | 969.85 | 965.73 | 959.87 | 1281 | 1244 | 2.939 | 1.932
x2 = 0.6483 | 965.55 | 959.34 | 955.15 | 949 | 1249 | 1211 | 1.859 | 1.294
x2 = 0.7483 | 955.01 | 948.45 | 944.2 | 937.77 | 1218 | 1178 | 1.176 | 0.875
x2 = 0.8499 | 943.97 | 937.1 | 932.79 | 926.1 | 1189 | 1147 | 0.744 | 0.598
x2 = 0.9447 | 933.26 | 926.21 | 921.8 | 914.96 | 1164 | 1119 | 0.489 | 0.425

CC(=O)OCCC(C)C [3-methylbutyl ethanoate] + CC(O)CO
Details | mass density, 298.15 K [kg/m3] | mass density, 303.15 K [kg/m3] | mass density, 308.15 K [kg/m3] | mass density, 313.15 K [kg/m3] | speed of sound, 298.15 K [m/s] | speed of sound, 308.15 K [m/s] | viscosity, 298.15 K [mPa·s] | viscosity, 308.15 K [mPa·s]
x1 = 0.0455 | 1017.21 | 1013.29 | 1009.48 | 1005.69 | 1460 | 1425 | 31.61 | 18.4
x1 = 0.1457 | 988 | 983.78 | 979.64 | 976.02 | 1398 | 1369 | 16.42 | 10.43
x1 = 0.2483 | 963.53 | 959.11 | 954.73 | 951.27 | 1346 | 1320 | 8.962 | 6.168
x1 = 0.3508 | 943.13 | 938.57 | 934.01 | 930.68 | 1304 | 1281 | 5.224 | 3.864
x1 = 0.452 | 926.02 | 921.33 | 916.63 | 913.4 | 1270 | 1248 | 3.269 | 2.574
x1 = 0.4959 | 919.36 | 914.62 | 909.86 | 906.68 | 1258 | 1235 | 2.721 | 2.196
x1 = 0.5551 | 911.01 | 906.21 | 901.38 | 898.24 | 1243 | 1220 | 2.165 | 1.802
x1 = 0.6523 | 898.71 | 893.81 | 888.88 | 885.8 | 1223 | 1199 | 1.56 | 1.357
x1 = 0.7497 | 887.92 | 882.93 | 877.91 | 874.87 | 1211 | 1182 | 1.191 | 1.075
x1 = 0.8495 | 878.28 | 873.2 | 868.1 | 865.12 | 1202 | 1169 | 0.961 | 0.893
x1 = 0.9426 | 870.47 | 865.34 | 860.17 | 857.24 | 1197 | 1160 | 0.831 | 0.788
